Laboratory results published in publication PMC10671052, “Naphthyl-Substituted Indole and Pyrrole Carboxylic Acids as Effective Antibiotic Potentiators—Inhibitors of Bacterial Cystathionine γ-Lyase” (International Journal of Molecular Sciences, 2023).

Experiments:
[1] = test system: P. aeruginosa GIMC5016:PA1840/36/2015; test: MIC of antibiotics alone and with potentiators, clinical isolate
Protocol: (§3) Overnight (ON) culture of a specific strain was grown in the liquid Luria–Bertani nutrient medium (LB broth, BD Difco) for 18 h at 37 °C, with agitation at 180 rpm using an Innova 44R orbital shaker (Eppendorf, Hamburg, Germany). After a certain period, 50 µL of the ON culture was transferred into 5 mL of the LB medium and grown for 3 h at 37 °C with agitation. Growth in the liquid medium was assessed by means of turbidity of the suspension, measured using a Densi-La-Meter II densitometer (Erba Lachema s.r.o., Brno, Czech Republic). Then, the bacterial suspension was diluted to the concentration 10^6 cells/mL with sterile LB and used as a seed culture [38, 39].
(§4) For the assessment of MICs, 96-well microtiter plates were utilized at 200 µL of a medium per well. Each well was filled with 100 µL of the seed culture. After that, 10 µL of a solution of each tested synthetic compound (potentiators) was added into each experimental well. Finally, 90 µL of twofold serial dilutions of an antibiotic in a sterile LB was added into individual wells.
(§5) As a positive control, we set up wells with 100 µL of the bacterial culture and 100 µL of the sterile LB medium. […] Negative-control wells contained 200 µL of the sterile medium. The plates were incubated in a thermostat for 18–20 h at 37 °C. The bacterial growth was assessed as optical density at 600 nm on a CLARIOstar microplate reader (BMG LABTECH GmbH, Ortenberg, Germany)).

[2] = biological target: S. aureus cystathionine-γ-lyase (bCSE) (Staphylococcus aureus, UniProt A0A0H3K724); test: IC50 assay: inhibition of H2S production by purified bCSE, WSP5 fluorescent probe; type: biochemical
Sequence of S. aureus cystathionine-γ-lyase (bCSE) (A0A0H3K724 entry or part of it): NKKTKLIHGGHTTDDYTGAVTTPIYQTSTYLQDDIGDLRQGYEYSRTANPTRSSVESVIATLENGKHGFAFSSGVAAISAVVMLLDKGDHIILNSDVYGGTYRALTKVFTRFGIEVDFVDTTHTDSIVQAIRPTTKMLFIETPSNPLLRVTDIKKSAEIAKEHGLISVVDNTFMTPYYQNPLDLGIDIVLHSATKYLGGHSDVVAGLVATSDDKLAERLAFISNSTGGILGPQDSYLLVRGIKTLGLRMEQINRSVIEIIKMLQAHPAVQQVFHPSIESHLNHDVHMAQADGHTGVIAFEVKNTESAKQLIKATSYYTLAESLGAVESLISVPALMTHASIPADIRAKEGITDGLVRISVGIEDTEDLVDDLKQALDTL
Protocol: (§1) Fluorescence spectrophotometry-based inhibitory activity toward purified bCSE and hCSE was measured in a 96-well nonbinding black plate (Greiner, Kremsmunster, Austria) at 100 μL of the reaction mixture per well. bCSE and hCSE (0.02 μM) were preincubated in a thermoshaker (Biosan, Riga, Latvia) (30 °C, 300 rpm) for 40 min in 50 mM sodium phosphate buffer (pH 8.0), supplemented with 10 μM pyridoxal 5′-phosphate (Sigma-Aldrich, St. Louis, MO, USA), 0.1% of Tween 20 (Sigma-Aldrich, St. Louis, MO, USA), and 1.2 μM Washington State Probe-5 (Cayman Chemical, Ann Arbor, MI, USA) (excitation: 500 nm, emission: 530 nm) at different concentrations of a tested inhibitor. The reaction was initiated by the addition of 100 μM L-cysteine (TCI, Chennai, Tamil Nadu, India) in 50 mM sodium phosphate buffer pH 8.0 to the reaction mixture, and the enzymatic activity was monitored for 12 h using a CLARIOstar Plus instrument (BMG LABTECH GmbH, Ortenberg, Germany). The 100 µM L-cysteine concentration used in the experiments corresponds to the maximal reported intracellular concentration in bacteria. The data were normalized to the positive and negative controls, and IC50 values were obtained by fitting to a four-parameter sigmoidal curve (inhibitor vs. response, variable slope model) in GraphPad Prism 8 software (GraphPad by Dotmatics, Boston, MA, USA). Each experiment was conducted with 2–3 technical replicates. IC50 values were means of at least two independent experiments.
(§2) For the production of S. aureus cystathionine-γ-lyase (bCSE) and of human cystathionine-γ-lyase (hCSE), plasmids pSUMO:saCSE (Addgene # 54336) and pNIC28-Bsa4 (Addgene # 42365) were employed. Cultivation of a competent E. coli cell strain (Thermo Fisher Scientific, Waltham, MA, USA), transformed with a target plasmid, was carried out on a selective solid medium with kanamycin. Bacterial cells harboring the plasmid vector were cultured at 37 °C and 180 rpm until OD600 = 0.65. Then, isopropyl β-D1-thiogalactopyranoside (IPTG) was added to a final concentration of 1 mM. To obtain bCSE, the cells were cultured for 3.5 h at 37 °C; to obtain hCSE, the cells were cultured for 18–20 h at 25 °C. After centrifugation, cells were resuspended in a buffer composed of 50 mM Tris–HCl, at a pH of 8.0, and 300 mM sodium chloride. After that, the cells were lysed by ultrasonication, with a pulse duration of 15 s and an interval between pulses of 15 s. The amplitude of the ultrasonic vibrations was 50% of the maximum. After lysis, samples were centrifuged for 15 min (20,000× g at 4 ℃). The pH of the supernatant obtained after the centrifugation was adjusted to 7.5 by the addition of a 1 M solution of Tris–OH. Then, the test sample was subjected to filtration through a polyethersulfone membrane with a pore diameter of 0.22 μm.

bCSE = biological target: bCSE; set-up: method as in PMID 34112687; conditions: NL2 is from ref 13; read-out: experimental inhibition constant; cited from earlier work
[3] = test system: A. baumannii GIMC5509:ABT-52Ts19; test: MIC of antibiotics alone and with potentiators, clinical isolate
Protocol: as §3, §4, §5

[4] = biological target: T1, human cystathionine-γ-lyase (hCSE) (Homo sapiens, UniProt P32929); test: IC50 assay: inhibition of H2S production by purified hCSE, WSP5 fluorescent probe; type: biochemical; conditions: purified hCSE 0.02 μM, 100 μM L-cysteine, WSP5 probe, mean ± SD; read-out: IC50 biochemical assay hCSE
T1 construct: His6-TEV (N, cleaved yes); host or cells: E. coli
T1 sequence (P32929 whole entry): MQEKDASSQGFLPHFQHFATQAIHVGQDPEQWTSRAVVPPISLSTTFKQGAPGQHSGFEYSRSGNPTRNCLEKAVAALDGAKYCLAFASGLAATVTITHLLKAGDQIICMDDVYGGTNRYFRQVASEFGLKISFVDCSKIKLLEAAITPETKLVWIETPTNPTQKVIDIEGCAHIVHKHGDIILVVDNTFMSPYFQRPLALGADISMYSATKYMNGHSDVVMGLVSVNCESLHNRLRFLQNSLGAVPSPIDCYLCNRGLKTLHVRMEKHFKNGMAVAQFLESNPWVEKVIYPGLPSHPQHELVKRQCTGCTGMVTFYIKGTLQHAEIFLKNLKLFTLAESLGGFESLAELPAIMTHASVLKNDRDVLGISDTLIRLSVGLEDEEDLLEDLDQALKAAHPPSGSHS
Protocol: as §1, §2

[5] = P. aeruginosa GIMC5016:PA1840/36/2015, potentiator 50 µg/mL
[6] = A. baumannii GIMC5509:ABT-52Ts19, potentiator 50 µg/mL

Cc1oc(Cn2ccc3ccc(Br)cc32)cc1C(=O)O [NL2, 5-((6-bromo-1H-indol-1-yl)methyl)-2-methylfuran-3-carboxylic acid]
MIC of Tacillin in combination with potentiator ([1]; P. aeruginosa GIMC5016:PA1840/36/2015, piperacillin + tazobactam, potentiator 50 µg/mL): 32 µg/mL
MIC of Cefepim in combination with potentiator [1, 5]: 64 µg/mL
MIC of Gentamicin in combination with potentiator [1, 5]: > 512 µg/mL
MIC of Meropenem in combination with potentiator [1, 5]: 8 µg/mL
IC50 ([2]; IC50 (uM), bCSE enzymatic IC50, rounded, repeated in Table S13): 144 µM
IC50 ([2]; IC50 (uM), bCSE enzymatic IC50, rounded, repeated in Table S14): 144 µM
IC50 ([2]; IC50 biochemical assay bCSE, purified bCSE 0.02 μM, 100 μM L-cysteine, WSP5 probe, mean ± SD): 144 ± 9 µM
Ki (bCSE): 1.8 µM
MIC of Tacillin in combination with potentiator ([3]; A. baumannii GIMC5509:ABT-52Ts19, piperacillin + tazobactam, potentiator 50 µg/mL): 128 µg/mL
MIC of Cefepim in combination with potentiator [3, 6]: 128 µg/mL
MIC of Meropenem in combination with potentiator [3, 6]: 32 µg/mL
IC50 [4]: > 500 µM
